Patent publication US20100204144A1, “USE OF THE PEPTIDES MAIPPKKNQDK (COW KAPPA CASEIN 106-116) AND/OR YGFQNA (SERORPHIN) AS THERAPEUTIC AGENTS” (priority 2007, published 2010)
Where no end group is shown, it is not given here.

Legend:
HIV-1IIIB = test: HIV-1 antiviral assay in CEM-SS cells (MTS read-out of virus cell killing)
[1] = tested on: hepatitis B virus (HBV) ayw strain; test: HBV assay in HepG2-2.2.15 cells (secreted HBV DNA, TaqMan PCR); format: cell-based; details: 10 micrograms per ml, six days, HBV DNA in supernatant
From the text: HepG2-2.2.15 is a stable cell line containing the hepatitis B virus (HBV) ayw strain genome (ATCC Cat. No. CRL-11997). Antiviral compounds blocking any late step of viral replication such as transcription, translation, pregenome encapsidation, reverse transcription, particle assembly and release can be identified and characterized using this cell line. In this assay, an active compound will reduce the production of secreted HBV from cells, measured by utilizing real time quantitative PCR (TaqMan) assay to directly and accurately measure HBV DNA copies.
HepG2-2.2.15 cells were plated in 96-well microtiter plates. After 16-24 hours the confluent monolayer of HepG2-2.2.15 cells was washed and the medium was replaced with complete medium containing test peptides—10 micrograms per ml—in duplicate. […] Six days following the initial administration of the peptides, the cell culture supernatants was collected, treated with pronase and DNAse and then used in a real-time quantitative TaqMan PCR assay. The PCR-amplified HBV DNA was detected in real-time by monitoring increases in fluorescence signals that result from the exonucleolytic degradation of a quenched fluorescence probe molecule that hybridizes to the amplified HBV DNA. […] Antiviral activity was calculated from the reduction in HBV DNA levels (% virus control). […]

[2] = tested on: Human Peripheral Blood Mononuclear Cells (PBMC), B cell proliferation; test: B cell proliferation assay (SAC plus Interleukin-2, 3H-thymidine); format: cell-based; details: 10 micrograms per ml; SAC plus IL-2 stimulated PBMC
Protocol: Human Peripheral Blood Mononuclear Cells (PBMC) were obtained from normal human donors. The B cell proliferation was induced by stimulation of the cells with the B cell mitogen Staphylococcus aureus Cowans I (SAC) plus Interleukin-2, either in the absence (positive proliferation control), or in the presence of test peptides—10 micrograms per ml—to examine their effects on the B cell response. 10^5/well PBMC were plated in 96-well microtiter plates and assayed in duplicate with the peptides. […] At the end of incubation time, the plates were harvested and the cells counted by liquid scintillation for the incorporation of ^3H-thymidine as a measure of B cell proliferation.

[3] = tested on: cyclic AMP generation in human peripheral blood mononuclear cells (PBMC); test: cAMP induction assay (ELISA); format: cell-based; details: 10 min at 37° C.
Protocol: The cAMP kit was used as an immunoassay for the quantitative determination of cyclic AMP generation in human peripheral blood mononuclear cells (PBMC). PBMC were placed in 96-well microtitier plates (50 microliters of cells at 4×10^6/ml) and 50 microliters of medium alone (background control), forskolin (cAMP positive control; 50 micrograms per ml), or test peptides were added. Plates were mixed and incubated for 10 min at 37° C. and the cells were lysed by the addition of 50 microliters of 3% perchloric acid. NaOH was added to neutralize the samples. Plates were centrifuged for 15 min at 2500 rpm and the supernatants removed. The supernatants (diluted 2-fold in assay buffer) were then assayed for the levels of cAMP by ELISA.

HUVEC = test: Endothelial tube formation assay; format: cell-based, human; details: 10 micrograms per ml, 20 hours
From the text: Positive control was vehicle only.

[4] = tested on: IL-2, IL-4, IL-5, IFN-γ and TNF-α protein levels of spleen cells; test: Th1/Th2 cytokine profiling assay (Ovalbumin-restimulated spleen cells, CBA kit); format: cell-based, Balb/c mice; details: 10 micrograms per ml; Ovalbumin restimulation, 72 hours
From the text: The Balb/c mice (originated in 1923, it is a popular strain and is used in many different research disciplines. Also classified as an inbred from the production of 20 or more successive brother-sister matings, the Balb/c mouse is albino and small in size) were immunized on Days 1, 15, and 29 with Ovalbumin (Ovalbumin is the main protein found in egg white, commonly used to stimulate an immunological reaction in test animals) in PBS (5 micrograms/injection). On day 50, spleens of the mice were harvested (3 weeks after last boost with Ovalbumin). […] Thereafter, additional Ovalbumin was added to the cells at 10 micrograms/ml for in vitro restimulation of the cells. 72 hours later, cell supernatants were harvested and assayed using the Becton Dickinson Mouse Th1/Th2 Cytokine CBA Kit. This kit can be used to measure Interleukin-2 (IL-2), Interleukin-4 (IL-4), Interleukin-5 (IL-5), Interferon-γ (IFN-γ), and Tumor Necrosis Factor-α (TNF-α) protein levels in a single sample.

[5] = tested on: Primary Human endothelial cells (HUVEC); test: Endothelial cell migration assay; format: cell-based; details: 10 micrograms per ml, 22 hours
Protocol: Thereafter, designated concentration of testing peptides -10 micrograms per ml—was added in duplicate wells.

Molecule	antiviral activity of positive control compounds (HIV-1) (HIV-1IIIB)	inhibition of HBV replication as compared to the virus control infection [1] [%]	inhibition of the proliferation of specifically stimulated human B-cells [2] [%]	induction of cAMP formation in human peripheral blood cells [3] [%]	inhibition of the tube formation of endothelial cells (HUVEC) [%]	IFNγ spleen cells; TH1 response (% of control) [4]	IL-2 spleen cells (% of control) [4]	IL-4 spleen cells; TH2 response (% of control) [4]	IL-5 spleen cells; TH2 response (% of control) [4]	TNF-a spleen cells; TH1 response (% of control) [4]	induction of the migration of human endothelial cells [5] [%]
Cc1cn([C@H]2C[C@H](N=[N+]=[N-])[C@@H](CO)O2)c(=O)[nH]c1=O [AZT]	expected levels of antiviral activity										
CC(C)(C)NC(=O)[C@@H]1CN(Cc2cccnc2)CCN1C[C@@H](O)C[C@@H](Cc1ccccc1)C(=O)N[C@H]1c2ccccc2C[C@H]1O [indinavir]	expected levels of antiviral activity										
Met-Ala-Ile-Pro-Pro-Lys-Lys-Asn-Gln-Asp-Lys-OH (MAIPPKKNQDK-OH) [peptide 1]		29.4	21.2	5.3	23	63.4 % of control	0.0 % of control	0.0 % of control	57.1 % of control	74.9 % of control	22
Tyr-Gly-Phe-Gln-Asn-Ala-OH (YGFQNA-OH) [peptide 2]		35.7	7.1	1.8	21	48.2 % of control	0.0 % of control	0.0 % of control	42.2 % of control	81.4 % of control	26
